Values quoted from earlier work in patent publication US9327003B2, “Use of foti to enhance stem cell mobilization and proliferation” (Stemtech International, Inc., priority 2011, dated 2016).

Key:
[1] = including hemorrhaging, rupturing of the spleen, bloody sputum, bone disorders
[2] = tested on: circulating HSC; details: injection / administration

Molecule | side effects [1] | time course of elevating circulating HSC numbers [2] | further results
OC[C@H]1O[C@@H](Oc2c(O)cc(O)cc2C=Cc2ccc(O)cc2)[C@H](O)[C@@H](O)[C@@H]1O [2,3,5,4′-tetrahydroxystilbene-2-O-β-d-glycoside] |  |  | stability in aqueous solutions: readily degrade in aqueous solutions in a temperature and pH dependent manner
c1cc(CN2CCCNCCNCCCNCC2)ccc1CN1CCCNCCNCCCNCC1 [AMD3100, reference compound] | significant side effects |  | 
G-CSF: granulocyte colony-stimulating factor or recombinant forms thereof |  | requires days to achieve peak circulating HSC numbers | 
IL-8: interleukin-8 |  | acts only within minutes and has a short-lived effect | 
G-CSF: granulocyte colony-stimulating factor or recombinant forms thereof (protein, UniProt P09919 31-207, looked up) Granulocyte …: TPLGPASSLPQSFLLKCLEQVRKIQGDGAALQEKLVSECATYKLCHPEELVLLGHSLGIPWAPLSSCPSQALQLAGCLSQLHSGLFLYQGLLQALEGISPELGPTLDTLQLDVADFATTIWQQMEELGMAPALQPTQGAMPAFASAFQRRAGGVLVASHLQSFLEVSYRVLRHLAQP | significant side effects |  | 
